Consider one sequence from paper PMC8534003, “The Chemokine-Based Peptide, CXCL9(74-103), Inhibits Angiogenesis by Blocking Heparan Sulfate Proteoglycan-Mediated Signaling of Multiple Endothelial Growth Factors” (Cancers, 2021).

Experiment [1] has as its system FGF-2-induced angiogenesis, C57BL/6 mice. Put plainly: In vivo angiogenesis Matrigel plug assay. Also on record: species or system mouse. The conditions noted are these: data not shown. As to the method: Six-to-eight-week-old female C57BL/6 mice were anesthetized with a mixture of 2.5 mg/mL xylazine (V.M.D, Inovet, Arendonk, Belgium) and 37.5 mg/mL ketamine (Dechra, Northwich, UK) in PBS by i.p. injection. A vertical dorsal incision was made and an ALZET osmotic pump (model 1007D, DURECT Corporation, Cupertine, CA, USA) filled with 400 µg/100 µL CXCL9(74-103) or 100 µL PBS was subcutaneously (s.c.) implanted. The incision was closed with a surgical suture. Growth factor-reduced Matrigel (Corning Matrigel Growth Factor (GFR) Basement Membrane Matrix, Phenol Red-Free, LDEV-Free; Corning Life Sciences, Amsterdam, The Netherlands) was s.c. injected in the dorsal flank forming a firm plug (600 µL/plug). The Matrigel was either injected as such (control plugs) or supplemented with 300 µg CXCL9(74-103) and/or 180 ng FGF-2. Seven days later, the mice were sacrificed. Thirty minutes before sacrifice, the mice were i.v. injected with 200 µL (25 mg/kg) FITC-labeled 2000 kDa dextran (Sigma-Aldrich) to quantify vessel formation in the Matrigel plugs. Blood was collected through cardiac puncture into heparinized tubes containing 20 µL heparin (5.000 IE/mL, Leo Pharma, Ballerup, Denmark). The blood was centrifuged at 200 g and 4 °C for 10 min, whereafter the supernatant was centrifuged at 3000 g and 4 °C for 10 min. The collected plasma was stored away from light at 4 °C until analysis. The Matrigel plugs were removed and enzymatically and mechanically digested in 1.2 mL dispase (Corning Life Sciences) using an incubation at 37 °C for 1.5 h and the gentleMACS™ Dissociator (Miltenyi Biotec, Bergisch Gladbach, Germany). The digested Matrigel plugs were filtered through a 70 µm cell strainer, washed with 1.5 mL FACS buffer [2% (v/v) FCS + 2 mM EDTA in PBS] and centrifuged at 300 g and 4 °C for 7 min. The supernatant (SN) was centrifuged again at 300 g and 4 °C for 7 min and the SN was retained away from light at 4 °C until analysis. The pellet was resuspended in 1 mL FACS buffer, the cells were counted and used for flow cytometry. The antibodies used to identify endothelial cells were anti-mouse CD45-APC (clone 30-F11, eBioscience, Thermo Fisher Scientific), anti-mouse CD146-PE (clone ME-9F1) and anti-mouse Pan-endothelial Cell Antigen-BV711 (clone MECA-32) antibodies (both BD Biosciences). Mice experiments were approved by the Ethical Committee of KU Leuven (project number P199/2018).

The next experiment deals with phospho-ERK1/2. Put plainly: Signal transduction assay, VEGF165-induced ERK phosphorylation in MECs (ELISA). It counts as cell-based, mouse. The following applies: murine VEGF165 5 ng/mL 5 min, peptide 1 µM, n ≥ 3. As to the method: HMVECs and MECs were seeded in 6-well plates at 1.25 × 10^5 cells/well in their respective culture medium. Once the cell density reached 70–80% confluency, the cells were starved in serum-free medium overnight. Fifteen minutes prior to stimulation, cells were incubated with various concentrations of CXCL9(74-103) or CXCL9(86-103) in 0.5% (v/v) BSA in MCDB131 or DMEM medium (assay medium for HMVECs and MECs, respectively) at 37 °C. HMVECs and MECs were stimulated with assay medium alone or supplemented with 10 ng/mL EGF or 5 ng/mL murine VEGF165 at 37 °C for 15 or 5 min, respectively. Then, the cells were placed on ice, washed with ice-cold PBS and 90 µL of lysis buffer [1% (v/v) protease inhibitor cocktail, phosphatase inhibitor cocktail 2 and 3 (all Sigma-Aldrich) in 1 mM ethylenediaminetetraacetic acid (EDTA), 0.5% (v/v) Triton™ X-100, 5 mM NaF, 6 M urea in PBS] was added per well. […] The amount of phospho-ERK1/2 in the cell lysates was determined using an ERK1 (Thr202/Tyr204)/ERK2 (Thr185/Tyr187) ELISA duoset (R&D Systems) according to the manufacturer’s instructions. The amount of phosphorylated ERK was normalized to the total protein content in the samples measured by the Pierce™ bicinchoninic acid (BCA) protein assay kit (Thermo Fisher Scientific).

In another experiment the test system is HMVEC spheroids. Put plainly: Spheroid sprouting assay. It counts as cell-based, human. The conditions noted are these: FGF-2 10 ng/mL, peptide 3 µM, 16 hours; n = 5 experiments. As for the experimental part:
A 1:5 mixture of endothelial cells (4 × 10^4 cells/mL) and methylcellulose (Sigma-Aldrich, Saint Louis, MO, USA; 12 mg/mL in EBM™-2 basal medium) in EBM™-2 cell culture medium was prepared. Drops of 1 × 10^3 HMVECs were plated on a petri dish and allowed to form single spheroids in hanging droplets at 37 °C, 5% CO2 for 24 h. Spheroids were collected, sedimented by centrifugation and resuspended in a mixture of 24 mg/mL methylcellulose in basal EBM™-2, 1 mg/mL collagen type I (BD Biosciences, San Jose, CA, USA), 2.5 mg/mL NaHCO3 and 10 mM NaOH. The suspension was plated in a 96-well plate and the collagen was allowed to polymerize at 37 °C, 5% CO2 for 30 min. Spheroids were left untreated or stimulated with 0.3 or 3 µM of CXCL9(74-103) or 3 µM of CXCL9(86-103) for 15 min prior to addition of 10 ng/mL FGF-2 or 10 ng/mL EGF in EBM™-2 + 3% (v/v) FCS. In some experiments, HMVECs were pretreated with heparinase II (vide infra). After 16 hours, spheroid sprouting was assessed with an inverted Axiovert 200M microscope (Zeiss, Germany) through a 10× objective. The average number of sprouts was calculated and the average sprout length per spheroid was measured using Fiji software.
Sprouting experiments examining the dependency on HS binding for the inhibitory action of CXCL9(74-103) were performed as described above (vide supra). […]

In the case of KKVLKVRKSQRSRQKKTT [CXCL9(86-103)], in experiment [1], the “FGF-2-induced angiogenesis in the Matrigel plug assay” value is recorded as “no anti-angiogenic activity”. In addition, the “VEGF165-induced ERK phosphorylation” value with phospho-ERK1/2 is “did not result in a reduction of VEGF165-induced ERK phosphorylation”. The “sprout outgrowth induced by FGF-2” value in the experiment on HMVEC spheroids was “had no effect on sprout outgrowth induced by FGF-2”.
